Converted amounts (≈) assume the structure as drawn.
Columns and labels:
in vitro = details: human, CC50

Structure (SMILES): COc1cc(C(C)C)ccc1C1(N)C(=O)c2ccccc2C1=O [Example 53, 2-Amino-2-(4-isopropyl-2-methoxyphenyl)-2H-inden-1,3-dione]
- melting point: 164 to 166 °C
- CC50 (in vitro): 10.2 µg/mL (≈ 33 µM)

Structure (SMILES): COC1(c2ccc(C(C)C)cc2OCc2ccccc2)C(=O)c2ccccc2C1=O [Example 25, 2-(2-Benzyloxy-4-isopropyl-phenyl)-2-methoxy-indan-1,3-dione]
- melting point: 140 to 144 °C
- CC50 (in vitro): > 100 µg/mL

Structure (SMILES): CCCc1ccc(OC(C)=O)c(C2(OC(C)=O)C(=O)c3ccccc3C2=O)c1 [Example 11, 2-(2-Acetoxy-1,3-dioxo-2,3-dihydro-1H-inden-2-yl)-4-propylphenyl acetate]
- melting point: 108 to 111 °C
- CC50 (in vitro): 8.42 µg/mL

Structure (SMILES): CC(=O)Oc1cc(C(C)C)ccc1C1(OC(C)=O)C(=O)c2cccc([N+](=O)[O-])c2C1=O (stereo not shown) [Example 37, Acetic acid 2-(2-acetoxy-4-isopropyl-phenyl)-4-nitro-1,3-dioxo-indan-2-yl ester]
- melting point: 94 to 98 °C
- CC50 (in vitro): 62.7 µg/mL (≈ 147 µM)

Structure (SMILES): CCC(C)c1ccc(OC(C)=O)c(C2(OC(C)=O)C(=O)c3ccccc3C2=O)c1 (stereo not shown) [Example 13, 2-(2-Acetoxy-1,3-dioxo-2,3-dihydro-1H-inden-2-yl)-4-sec-butylphenyl acetate]
- melting point: 118 to 120 °C
- CC50 (in vitro): 7.93 µg/mL

Structure (SMILES): CC(C)c1ccc(C2(O)Cc3ccccc3C2=O)c(O)c1 (stereo not shown) [Example 51, 2-Hydroxy-2-(2-hydroxy-4-isopropylphenyl)-2,3-dihydro-1H-inden-1-one]
- melting point: 144 to 146 °C
- CC50 (in vitro): 9.34 µg/mL (≈ 33.1 µM)

Structure (SMILES): COc1cc(C(C)C)ccc1C1(O)C(=O)c2ccc(N)c(N)c2C1=O (stereo not shown) [Example 47, 4,5-Diamino-2-hydroxy-2-(4-isopropyl-2-methoxyphenyl)-2H-inden-1,3-dione]
- melting point: 272 to 274 °C
- CC50 (in vitro): 50.9 µg/mL (≈ 150 µM)

Structure (SMILES): CC(C)c1ccc(C2(O)C(=O)c3ccccc3C2=O)c(OCc2ccccc2)c1 [Example 24, 2-(2-Benzyloxy-4-isopropyl-phenyl)-2-hydroxy-indan-1,3-dione]
- melting point: 197 to 199 °C
- CC50 (in vitro): > 100 µg/mL

Structure (SMILES): COc1ccc2c(c1)C(=O)C(OC(C)=O)(c1ccc(C(C)C)cc1OC(C)=O)C2=O (stereo not shown) [Example 27, 2-(2-Acetoxy-4-isopropylphenyl)-5-methoxy-1,3-dioxo-2,3-dihydro-1H-inden-2-yl acetate]
- melting point: 146 to 148 °C
- CC50 (in vitro): 9.5 µg/mL

Structure (SMILES): COc1cc(C(C)C)ccc1C1(NC(=O)c2ccccc2)C(=O)c2ccccc2C1=O [Example 55, N-(2-(4-Isopropyl-2-methoxyphenyl)-1,3-dioxo-2,3-dihydro-1H-inden-2-yl)benzamide]
- melting point: 106 to 108 °C
- CC50 (in vitro): > 117 µg/mL

Structure (SMILES): CCc1ccc(OC(C)=O)c(C2(OC(C)=O)C(=O)c3ccccc3C2=O)c1 [Example 12, 2-(2-Acetoxy-1,3-dioxo-2,3-dihydro-1H-inden-2-yl)-4-ethylphenyl acetate]
- melting point: 153 to 154 °C
- CC50 (in vitro): 74.1 µg/mL

Structure (SMILES): Cc1cc(C2(O)C(=O)c3ccccc3C2=O)c(C)cc1O [Example 35, 2-Hydroxy-2-(4-hydroxy-2,5-dimethylphenyl)-1H-inden-1,3(2H)-dione]
- melting point: 228 to 230 °C
- CC50 (in vitro): 59.8 µg/mL (≈ 212 µM)

Structure (SMILES): COc1cc(C(C)C)ccc1C1(NC(C)=O)C(=O)c2cccc(NC(C)=O)c2C1=O (stereo not shown) [Example 67, N,N′-(2-(4-Isopropyl-2-methoxyphenyl)-1,3-dioxo-2,3-dihydro-1H-inden-2,4-diyl)diacetamide]
- melting point: 241 to 243 °C
- CC50 (in vitro): 54.6 µg/mL (≈ 134 µM)

Structure (SMILES): CC(=O)Oc1ccc(C(C)(C)C)cc1C1(OC(C)=O)C(=O)c2ccccc2C1=O [Example 14, 2-(2-Acetoxy-1,3-dioxo-2,3-dihydro-1H-inden-2-yl)-4-tert-butylphenyl acetate]
- melting point: 195 to 196 °C
- CC50 (in vitro): 8.26 µg/mL

Structure (SMILES): COc1cc(C(C)C)ccc1C1(O)C(=O)c2ccc([N+](=O)[O-])c(NC(C)=O)c2C1=O (stereo not shown) [Example 43, N-(2-Hydroxy-2-(4-isopropyl-2-methoxyphenyl)-5-nitro-1,3-dioxo-2,3-dihydro-1H-inden-4-yl)acetamide]
- melting point: 199 to 201 °C
- CC50 (in vitro): 61.7 µg/mL (≈ 150 µM)

Structure (SMILES): CC(=O)c1ccc(C2(O)C(=O)c3ccccc3C2=O)c(O)c1 [Example 20, 2-(4-Acetyl-2-hydroxy-phenyl)-2-hydroxy-indan-1,3-dione]
- melting point: 177 to 180 °C
- CC50 (in vitro): > 100 µg/mL

Structure (SMILES): COc1cc(C(C)C)ccc1C1(NC(N)=O)C(=O)c2ccccc2C1=O [Example 61, 1-(2,3-Dihydro-2-(4-isopropyl-2-methoxyphenyl)-1,3-dioxo-1H-inden-2-yl)urea]
- melting point: 272 to 274 °C
- CC50 (in vitro): > 117 µg/mL

Structure (SMILES): COc1cc(C(C)C)ccc1C1(O)C(=O)c2c(NC(C)=O)ccc([N+](=O)[O-])c2C1=O (stereo not shown) [Example 42, N-(2-Hydroxy-2-(4-isopropyl-2-methoxyphenyl)-7-nitro-1,3-dioxo-2,3-dihydro-1H-inden-4-yl)acetamide]
- melting point: 110 to 115 °C
- CC50 (in vitro): 71.1 µg/mL (≈ 172 µM)

Structure (SMILES): CC(=O)Oc1c(C2(OC(C)=O)C(=O)c3ccccc3C2=O)ccc(Cl)c1Cl [Example 4, 6-(2-Acetoxy-1,3-dioxo-2,3-dihydro-1H-inden-2-yl)-2,3-dichlorophenyl acetate]
- melting point: 129 to 136 °C
- CC50 (in vitro): 50.4 µg/mL

Structure (SMILES): COc1cc(C(C)C)ccc1C1(O)C(=O)c2ccc(N)c(NC(C)=O)c2C1=O (stereo not shown) [Example 45, N-(5-Amino-2-hydroxy-2-(4-isopropyl-2-methoxyphenyl)-1,3-dioxo-2,3-dihydro-1H-inden-4-yl)acetamide]
- melting point: 124 to 131 °C
- CC50 (in vitro): > 117 µg/mL

Structure (SMILES): COc1cc(C(C)C)ccc1C1(NC(=O)OC(C)C)C(=O)c2ccccc2C1=O [Example 62, Isopropyl 2-(4-isopropyl-2-methoxyphenyl)-1,3-dioxo-2,3-dihydro-1H-inden-2-ylcarbamate]
- melting point: 159 to 161 °C
- CC50 (in vitro): 11.3 µg/mL (≈ 28.5 µM)

Structure (SMILES): COC1(c2ccc(C(C)C)cc2O)C(=O)c2ccccc2C1=O [Example 28, 2-(2-Hydroxy-4-isopropylphenyl)-2-methoxy-1H-inden-1,3(2H)-dione]
- melting point: 272 to 274 °C
- CC50 (in vitro): 9.2 µg/mL (≈ 29.6 µM)

Structure (SMILES): CC(=O)Oc1c(Cl)cc(Cl)cc1C1(OC(C)=O)C(=O)c2ccccc2C1=O [Example 5, 2-(2-Acetoxy-1,3-dioxo-2,3-dihydro-1H-inden-2-yl)-4,6-dichlorophenyl acetate]
- melting point: 178 to 180 °C
- CC50 (in vitro): 26 µg/mL

Structure (SMILES): CC(=O)Oc1cc(C)c(C)c(C)c1C1(OC(C)=O)C(=O)c2ccccc2C1=O [Example 16, 2-(2-Acetoxy-1,3-dioxo-2,3-dihydro-1H-inden-2-yl)-3,4,5-trimethylphenyl acetate]
- melting point: 238 to 242 °C
- CC50 (in vitro): 8.87 µg/mL

Structure (SMILES): CCOC(=O)Cc1cc(OC)c(OC(C)=O)c(C2(OC(C)=O)C(=O)c3ccccc3C2=O)c1 [Example 1, Ethyl 2-(4-acetoxy-3-(2-acetoxy-1,3-dioxo-2,3-dihydro-1H-inden-2-yl)-5-methoxyphenyl)acetate]
- melting point: 102 to 107 °C
- CC50 (in vitro): > 100 µg/mL

Structure (SMILES): COC(=O)NC1(c2ccc(C(C)C)cc2OC)C(=O)c2ccccc2C1=O [Example 59, Methyl 2-(4-isopropyl-2-methoxyphenyl)-1,3-dioxo-2,3-dihydro-1H-inden-2-ylcarbamate]
- melting point: 153 to 155 °C
- CC50 (in vitro): 53.7 µg/mL (≈ 146 µM)
